Assay results from patent US5344933A, “Pyrrole ring-or condensed pyrrole ring-containing azomethine dye” (Fuji Photo Film Co., Ltd., priority 1991, dated 1994).

Columns and labels:
Format in all cases: physicochemical
[1] = Absorption characteristics of dyes in ethyl acetate; conditions: for absorption maxima wavelength (λmax): Example 1
Text: The σp value of substituents in dyes of the present invention, the absorption maxima wavelength of these dyes in ethyl acetate and their half value widths are tabulated below.
The absorption characteristics of Dyes 1, 2, 8, 12, 23, 101, 102, 104, 105, 106, 128, 129, 130, and 131 of the present invention in ethyl acetate are as shown in FIGS. 1 to 14. In these figures, the abbreviation "ABS" in the ordinate means the absorbance. The absorption maxima wavelength (λmax) in ethyl acetate and other physical properties of the dyes of the present invention are as follows: […]

[2] = Heat fastness of dye images, 60° C. dry, 7 days (Example 2); conditions: Table 1, initial density 1.0, at λmax
Description: (§1) The heat transfer image-receiving materials on which recording had been made were then irradiated with light from a 17,000 lux fluorescent lamp for 7 days to examine the stability of the dyes. The heat transfer image-receiving materials were also stored at a temperature of 60° C. under dry conditions for 7 days to examine the fastness of the dyes to heat. […] For the evaluation of stability, percentage of the measurements to the initial value (1.0) were determined. The measurement was effected at λmax.

[3] = Light fastness of dye images, 17,000 lux fluorescent lamp, 7 days
Description: as §1
Heat transfer dye providing materials (3-1), (3-2), and (3-3) were prepared in the same manner as in Example 2 except that the polyvinyl butyral resin and dye to be incorporated in the heat transfer dye providing layer coating composition of Example 2 were replaced by the resins and dyes set forth in Table 3.
(§2) Using the same image-receiving material as prepared in Example 2, printing was made on these heat transfer dye providing materials.
Heat transfer dye providing materials (6-1), (6-2), and (6-3) were prepared in the same manner as in Example 2 except that the polyvinyl butyral resin and dye to be incorporated in the heat transfer dye providing layer coating composition of Example 2 were replaced by the resins and dyes set forth in Table 6.

[4] = Heat fastness of dye images, 60° C. dry, 7 days, status A reflection density (Example 5); conditions: Table 4, status A reflection density 1.0
Description: The heat transfer image-receiving materials on which recording had been made were stored at a temperature of 60° C. under dry conditions for 7 days to examine the fastness of the dyes to heat. […] For the evaluation of stability, percentage of the measurements to the initial value (1.0) were determined.
as §2

[5] = Table 1, 17,000 lux, 7 days, initial density 1.0, at λmax, polyvinyl butyral

SMILES: CCOC(=O)c1c(C)n2c(nc1=O)C(C#N)=C(c1ccccc1)C2=Nc1ccc(N(CC)CCNS(C)(=O)=O)cc1C [Dye 1]
- absorption maxima wavelength (λmax) [1]: 697 nm

SMILES: CCOC(=O)c1c(C)n2c(nc1=O)C(C#N)=C(c1ccccc1)C2=Nc1ccc(N(CC)CC)cc1 [Dye 2]
- absorption maxima wavelength (λmax) [1]: 685 nm
- Heat fastness (% remaining) [2]: 85%
- Light fastness (% remaining) [3, 5]: 90%
- Light fastness (% remaining) ([3]; Table 3, resin ethyl cellulose): 91%

SMILES: CCOC(=O)c1c(C)n2c(nc1=O)C(C#N)=C(c1ccccc1)C2=Nc1ccc(N(CC)CCOc2ccc(OC)cc2)cc1 [Dye 3]
- Heat fastness (% remaining) [2]: 86%
- Light fastness (% remaining) [3, 5]: 92%

SMILES: CCOC(=O)c1c(C)n2c(nc1=O)C(C#N)=C(c1ccccc1)C2=Nc1ccc(N(CC)CC)cc1NC(=O)OC [Dye 4]
- Heat fastness (% remaining) [2]: 85%
- Light fastness (% remaining) [3, 5]: 91%
- Light fastness (% remaining) ([3]; Table 3, resin cellulose acetobutyrate): 92%

SMILES: CCOC(=O)c1cn2c(nc1=O)C(C#N)=C(c1ccccc1)C2=Nc1ccc(N(CC)CC)cc1 [Dye 8]
- absorption maxima wavelength (λmax) [1]: 694 nm
- Heat fastness (% remaining) [2]: 99%
- Light fastness (% remaining) [3, 5]: 91%
- Light fastness (% remaining) ([3]; Table 3, resin polysulfone): 91%

SMILES: CCOC(=O)c1cn2c(nc1=O)C(C#N)=C(c1ccccc1)C2=Nc1ccc(N(CC)CCOc2ccc(OC)cc2)cc1 [Dye 10]
- Heat fastness (% remaining) [2]: 100%
- Light fastness (% remaining) [3, 5]: 93%

SMILES: CCOC(=O)c1cn2c(nc1=O)C(C#N)=C(c1ccccc1)C2=Nc1ccc(N(CC)CC)cc1NC(=O)OC [Dye 12]
- absorption / hue (in words) [1]: sufficient and sharp absorption in the vicinity of 700 nm and little or no absorption in the wavelength region of longer than 800 nm
- absorption maxima wavelength (λmax) [1]: 698 nm
- Heat fastness (% remaining) [2]: 98%
- Light fastness (% remaining) [3, 5]: 94%

SMILES: CCOC(=O)c1cn2c(nc1=O)C(C#N)=C(C#N)C2=Nc1ccc(N(CC)CC)cc1NC(=O)N(C)C [Dye 16]
- Heat fastness (% remaining) [2]: 98%
- Light fastness (% remaining) [3, 5]: 93%

SMILES: CCN(CC)c1ccc(N=C2C(C#N)=C(c3ccccc3)c3nc(=O)ccn32)c(NC(C)=O)c1 [Dye 17]
- Heat fastness (% remaining) [2]: 95%
- Light fastness (% remaining) [3, 5]: 91%

SMILES: CCN(CC)c1ccc(N=C2C(c3ccccc3)=C(C#N)c3nc(=O)c4ccccc4n32)c(NC(C)=O)c1 [Dye 22]
- Heat fastness (% remaining) [2]: 85%
- Light fastness (% remaining) [3, 5]: 91%

SMILES: CCCCCCCCCCCCCCCCCCOc1ccc(-c2cc(=O)n3c(n2)C(C#N)=C(c2ccccc2)C3=Nc2ccc(N(CC)CCNS(C)(=O)=O)cc2C)cc1 [Dye 23]
- absorption maxima wavelength (λmax) [1]: 658 nm

SMILES: CCOC(=O)C1=C(C#N)C(=Nc2ccc(N(CC)CC)cc2)n2c1nc1ccccc1c2=O [Dye 29]
- Heat fastness (% remaining) [2]: 86%
- Light fastness (% remaining) [3, 5]: 90%

SMILES: CCCCCCCCCCCCC(SC1=NC(=Nc2ccc(N(CC)CCNS(C)(=O)=O)cc2C)C(C#N)=C1C(=O)OCC)C(=O)OCC (stereo not drawn) [Dye 101]
- Half value width [1]: 65 nm
- absorption / hue (in words) [1]: long absorption maxima wavelength
- half value width (in words) [1]: sufficiently small
- absorption maxima wavelength (λmax) [1]: 660 nm

SMILES: CCCCCCCCCCCCSC1=NC(=Nc2ccc(N(CC)CCNS(C)(=O)=O)cc2C)C(C#N)=C1C(=O)OCC [Dye 102]
- Half value width [1]: 69 nm
- absorption / hue (in words) [1]: long absorption maxima wavelength
- half value width (in words) [1]: sufficiently small
- absorption maxima wavelength (λmax) [1]: 655 nm

SMILES: CCC(Oc1ccc(C(C)(C)CC)cc1C(C)(C)CC)C(=O)NC1=C(C#N)C(c2ccccc2)=NC1=Nc1ccc(N(CC)CCNS(C)(=O)=O)cc1C (stereo not drawn) [Dye 104]
- Half value width [1]: 78 nm
- absorption / hue (in words) [1]: in a slightly short wavelength range but exhibit a cyan hue
- half value width (in words) [1]: large half value width
- absorption maxima wavelength (λmax) [1]: 601 nm

SMILES: CCOC(=O)C1=C(c2ccccc2)C(=Nc2ccc(N(CC)CCNS(C)(=O)=O)cc2C)N=C1Cl [Dye 105]
- Half value width [1]: 82 nm
- absorption / hue (in words) [1]: in a slightly short wavelength range but exhibit a cyan hue
- half value width (in words) [1]: large half value width
- absorption maxima wavelength (λmax) [1]: 582 nm

SMILES: CCN(CCNS(C)(=O)=O)c1ccc(N=C2N=C(N)C(C#N)=C2C#N)c(C)c1 [Dye 106]
- Half value width [1]: 79 nm
- absorption maxima wavelength (λmax) [1]: 641 nm

SMILES: CCN(CC)c1ccc(N=C2N=C(NC(=O)C(C)(C)C)C(C#N)=C2C#N)cc1 [Dye 113]
- Light fastness (% remaining) ([3]; Table 6, resin ethyl cellulose): 91%
- Heat fastness (% remaining) [4]: 90%

SMILES: CCN(CC)c1ccc(N=C2N=C(c3ccccc3)C(C#N)=C2c2ccccc2)c(C)c1 [Dye 114]
- Light fastness (% remaining) ([3]; Table 6, resin cellulose acetobutyrate): 93%
- Heat fastness (% remaining) [4]: 91%

SMILES: CCN(CCOc1ccc(OC)cc1)c1ccc(N=C2N=C(c3ccccc3)C(C#N)=C2NC(=O)C(C)(C)C)cc1 [Dye 115]
- Light fastness (% remaining) ([3]; Table 6, resin polysulfone): 92%
- Heat fastness (% remaining) [4]: 90%

SMILES: CCN(CC)c1ccc(N=C2N=C(c3ccccc3NC(=O)C(C)(C)C)C(C#N)=C2c2ccccc2)cc1 [Dye 116]
- Heat fastness (% remaining) [4]: 89%

SMILES: CCN(CC)c1ccc(N=C2N=C(c3ccccc3)C(C#N)=C2C(C)(C)C)c(NC(=O)N2CCOCC2)c1 [Dye 117]
- Heat fastness (% remaining) [4]: 94%

SMILES: CCN(CC)c1ccc(N=C2N=C(c3ccccc3Cl)C(C(C)(C)C)=C2C#N)c(NC(=O)C(C)(C)C)c1 [Dye 118]
- Heat fastness (% remaining) [4]: 91%

SMILES: CCN(CCC#N)c1ccc(N=C2N=C(NC(=O)C(C)(C)C)C(C#N)=C2C#N)cc1 [Dye 119]
- Heat fastness (% remaining) [4]: 90%

SMILES: CCN(CCOc1ccc(C(=O)c2ccccc2)c(O)c1)c1ccc(N=C2N=C(c3ccccc3)C(C#N)=C2c2cccs2)cc1 [Dye 120]
- Heat fastness (% remaining) [4]: 98%

SMILES: CCN(CCNS(C)(=O)=O)c1ccc(N=C2N=C(NC(C)=O)C(C#N)=C2C#N)c(C)c1 [Dye 128]
- Half value width [1]: 64 nm
- absorption / hue (in words) [1]: long absorption maxima wavelength
- half value width (in words) [1]: sufficiently small
- absorption maxima wavelength (λmax) [1]: 658 nm

SMILES: CCN(CCNS(C)(=O)=O)c1ccc(N=C2N=C(NC(=O)Nc3ccccc3)C(C#N)=C2C#N)c(C)c1 [Dye 129]
- Half value width [1]: 79 nm
- absorption / hue (in words) [1]: long absorption maxima wavelength
- half value width (in words) [1]: sufficiently small
- absorption maxima wavelength (λmax) [1]: 677 nm

SMILES: CCCCCCCCCCCCCCCCS(=O)(=O)Nc1ccc(Cl)c(NC(=O)NC2=NC(=Nc3ccc(N(CC)CCNS(C)(=O)=O)cc3)C(C(N)=O)=C2C(N)=O)c1 [Dye 130]
- Half value width [1]: 120 nm
- half value width (in words) [1]: large half value width
- absorption maxima wavelength (λmax) [1]: 639 nm

SMILES: CCC(Oc1ccc(C(C)(C)CC)cc1C(C)(C)CC)C(=O)NC1=NC(=Nc2ccc(N(CC)CCNS(C)(=O)=O)cc2C)C(C(N)=O)=C1C(N)=O (stereo not drawn) [Dye 131]
- Half value width [1]: 98 nm
- half value width (in words) [1]: large half value width
- Absorption maxima ([1]; first table): 629 nm

SMILES: CCC1=C(Cl)C(=O)C(NC(=O)c2ccco2)=CC1=Nc1ccc(N(CC)CC)cc1 [Dye a, reference compound]
- Heat fastness (% remaining) [2]: 88%
- Light fastness (% remaining) [3, 5]: 87%

SMILES: CCN(CC)c1ccc(N=C2C=C(NC(=O)c3ccco3)C(=O)C(Cl)=C2C)cc1 [Dye b, reference compound]
- Heat fastness (% remaining) [4]: 83%
